Test results reported in article PMC11855827, “High-Throughput Screening of Five Compound Libraries for Anthelmintic Activity and Toxicity Leads to the Discovery of Two Flavonoid Compounds” (International Journal of Molecular Sciences, 2025).

Test system: C. elegans
Conditions: Table S2, C. elegans SS assay, 110 μM, averages of 4 data points

| Molecule | Percentage of motility inhibition 0 h [%] | Percentage of motility inhibition 24 h [%] |
| --- | --- | --- |
| O=C(/C=C/c1ccc(O)cc1)c1ccc(O[C@@H]2O[C@H](CO)[C@@H](O)[C@H](O)[C@H]2O)cc1O [Neoisoliquiritin] | 17 | 11 |
| N.N.N.O=C(O)CC(O)(CC(=O)O)C(=O)O [Citric acid (triammonium)] | 8 | 0 |
| C[C@@H]1O[C@@H](O[C@H]2[C@H](OC(=O)[C@]34CCC(C)(C)C[C@H]3C3=CC[C@@H]5[C@@]6(C)C[C@H](O)[C@H](O[C@@H]7O[C@H](CO)[C@@H](O)[C@H](O)[C@H]7O)[C@](CO)(C(=O)O)[C@@H]6CC[C@@]5(C)[C@]3(C)C[C@H]4O)OC[C@H](O)[C@@H]2O)[C@H](O)[C@H](O)[C@H]1O[C@@H]1OC[C@@H](O)[C@H](O[C@@H]2OC[C@](O)(CO)[C@H]2O)[C@H]1O [Platyconic acid A] | 0 | 5 |
| CC(C)OC(=O)[C@H](C)N[P@](=O)(CO[C@H](C)Cn1cnc2c(N)ncnc21)Oc1ccccc1.O=C(O)/C=C/C(=O)O [GS‐7340 (fumarate)] | 20 | 8 |
| Vitamin B12 | 34 | 0 |
| C/C1=C\CC/C(C)=C/CC(C)(C)/C=C/C1 [α-Humulene] | 11 | 55 |
| C/C=C(\C)C(=O)O[C@H]1[C@H](O)[C@]2(COC(C)=O)[C@@H](O)C[C@]3(C)C(=CC[C@@H]4[C@@]5(C)CC[C@H](O[C@@H]6O[C@H](C(=O)O)[C@@H](O)[C@H](O)[C@H]6O)[C@@](C)(CO)[C@@H]5CC[C@]43C)[C@@H]2CC1(C)C [Gymnemic acid I] | 20 | 0 |
| Clinodiside A | 1 | 0 |
| CC(C)(C)C(=O)OCOC(=O)[C@@H]1N2C(=O)[C@@H](N=CN3CCCCCC3)[C@H]2SC1(C)C.Cl [Pivmecillinam (hydrochloride)] | 12 | 0 |
| C[C@H]1CC[C@@H]2N(C1)C[C@H]1[C@@H]3C[C@H]4[C@@H](CC(=O)[C@H]5C[C@H](O)CC[C@@]54C)[C@@H]3CC[C@H]1[C@]2(C)O [Yubeinine] | 13 | 0 |
| Tubeimoside I | 3 | 0 |
| CC1(C)CC[C@]2(C(=O)O)CC[C@]3(C)C(=CC[C@@H]4[C@@]5(C)CC[C@H](O[C@@H]6OC[C@H](O)[C@H](O)[C@H]6O)[C@@](C)(CO)[C@@H]5CC[C@]43C)[C@@H]2C1 [Cauloside A] | 12 | 24 |
| Teicoplanin | 3 | 9 |
| COc1cc2c(cc1O)C1Cc3ccc(OC)c(O)c3C[N+]1(C)CC2.[Cl-] (centres unmarked) [Cyclanoline (chloride)] | 7 | 12 |
| CC(=O)CC[C@@H]1[C@H]2CC(=C(C)C)C(=O)C[C@@]12C [Curcumenone] | 3 | 0 |
| COC1=CC(=O)OC(/C=C/c2ccccc2)C1 (stereo not drawn) [(+)‐Kavain] | 38 | 14 |
| Brusatol | 48 | 37 |
| C[C@H]1[C@H](C)CC[C@]2(C)CC[C@]3(C)C(=CC(=O)[C@@H]4[C@@]5(C)CC[C@@H](O)[C@](C)(C(=O)O)[C@@H]5CC[C@]43C)[C@H]12 [11-Keto-beta-boswellic acid] | 2 | 0 |
| C=C1CC[C@@H]2[C@](C)(CO)[C@H](O)CC[C@]2(C)[C@@H]1/C=C/C1=CCOC1=O [14-Deoxy-11,12-didehydroandrographolide] | 0 | 6 |
